Measurements: patent US10869922B2 (priority 2016, dated 2020)

Columns and labels:
DC = assay: Immunofluorescence co-localization experiment; type: cell-based, mouse; conditions: DC treated by high NaCl concentration, FIG. 10d
Text: Immunofluorescence co-localization experiment: the experimental group, ibid. Fix and permeabilize DC stimulated by high NaCl concentration and fluorescent labeled OVA in vitro, and stain with organelle fluorescent protein markers of proteasome and lysosome, and observe under the confocal microscopy.

[1] = tested on: DC and CD8+T lymphocytes from OT-1 transgenic mouse; assay: DC/T lymphocyte co-culture experiment; type: cell-based
Text: Co-culture DC stimulated by high NaCl concentration and OVA antigen in vitro and CFSE-labeled CD8+T lymphocytes from OT-1 transgenic mouse for 2-3 days, observe the formation of CLUSTER under white light of the microscope, detect the proliferation of CFSE-labeled CD8+T lymphocytes by flow cytometry, and detect the secretion of IL2 in the collected culturesupernatant by ELISA.

[2] = DC treated by high NaCl concentration and OVA, co-culture 2-3 days, FIGS. 10a, b and c

In the case of `[Cl-].[Na+]` [NaCl, sodium chloride], the “degradation route of OVA in DC” value (DC) is reported as “mostly degraded by proteasome rather than lysosome”, the “proliferation of specific CD8+T lymphocytes” value [1, 2] is reported as “induce” and the “secretion of IL2” value [1, 2] is reported as “induce”. The “cross antigen presentation of DC” value ([1]; high NaCl concentration, FIG. 10) was “significantly improve”.
